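96-well plates; 48 h exposure; 5 concentrations. Endpoints by linear interpolation between flanking doses. Not reached: highest tested concentration assigned. At the GI50, growth is halved. TGI denotes the concentration required for complete inhibition of growth.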

Some test systems named below: HL-60(TB) leukemia; SF-539 CNS; SW-620 colon; UACC-62 melanoma; MOLT-4 leukemia; NCI-H460 lung; NCI-H23 lung; UO-31 renal; U251 CNS; HT29 colon; CCRF-CEM leukemia; OVCAR-8 ovarian; IGROV1 ovarian; OVCAR-5 ovarian; HCC-2998 colon; LOX IMVI melanoma.
Holding throughout (experiment): DTP human tumour cell line panel, 48 h

One may read the TGI as the concentration giving total growth inhibition. Low readings indicate more potent growth arrest, high ones less potent growth arrest. Turning to `O=C1C(Cl)N(c2c(Cl)cccc2Cl)C1c1c[nH]c2ccccc12` (configuration not stated), the TGI in the test with HL-60(TB) leukemia, with SF-539 CNS, with SW-620 colon, in the test with UACC-62 melanoma, in the test on MOLT-4 leukemia and in the test with NCI-H460 lung was over 100 µM each time. Further, the TGI with NCI-H23 lung, in the test with UO-31 renal, with U251 CNS, in the test with HT29 colon, in the test with CCRF-CEM leukemia and in the test with OVCAR-8 ovarian was over 100 µM each time. Besides, the TGI in the test on IGROV1 ovarian and in the test on OVCAR-5 ovarian was over 100 µM each time.
Take `COc1cc(OC2OC(CO)C(O)C(O)C2O)c2c(O)c3c(=O)cc(C)oc3cc2c1` (configuration not stated): the TGI in the test on HL-60(TB) leukemia, with SF-539 CNS, in the test with SW-620 colon, with UACC-62 melanoma, in the test on HCC-2998 colon and in the test with MOLT-4 leukemia was over 100 µM in each case. Moreover, the TGI in the test on NCI-H460 lung, with NCI-H23 lung, in the test with UO-31 renal, with U251 CNS, with LOX IMVI melanoma and in the test on HT29 colon was over 100 µM each time. For the same molecule, the TGI in the test on CCRF-CEM leukemia, in the test with OVCAR-8 ovarian, with IGROV1 ovarian and in the test with OVCAR-5 ovarian was over 100 µM throughout.
Regarding `CCOC(=O)Cc1cc(OC)c(OC)cc1/C(Cl)=C(\CO)c1ccc(OC)c(OC)c1`, the TGI in the test on HL-60(TB) leukemia, in the test on SW-620 colon, with UACC-62 melanoma, with MOLT-4 leukemia, with NCI-H460 lung and with NCI-H23 lung was over 100 µM each time. The TGI with UO-31 renal, in the test on U251 CNS, with LOX IMVI melanoma, in the test with HT29 colon, with CCRF-CEM leukemia and with OVCAR-8 ovarian was over 100 µM throughout. The molecule also had a TGI in the test on IGROV1 ovarian of over 100 µM.
On to `C[N+](C)(CCCCCC[N+](C)(C)CCCN1C(=O)c2cccc3cccc(c23)C1=O)CCCN1C(=O)c2cccc3cccc(c23)C1=O`, for which the TGI in the test on HL-60(TB) leukemia, in the test on SF-539 CNS, with SW-620 colon, in the test on UACC-62 melanoma, with MOLT-4 leukemia and with NCI-H460 lung was over 100 µM in each case. In addition, the TGI in the test with NCI-H23 lung, in the test on UO-31 renal, in the test on U251 CNS, in the test with LOX IMVI melanoma, in the test with HT29 colon and in the test on CCRF-CEM leukemia was over 100 µM each time. For the same molecule, the total growth inhibition concentration (TGI) with OVCAR-8 ovarian, in the test on IGROV1 ovarian and in the test with OVCAR-5 ovarian was over 100 µM in each case.
As for `CCNC(=O)C(C)C1CCC2(C)C=CC(=O)C(C)=C2C1O` (configuration not stated), the TGI with HL-60(TB) leukemia, in the test on SF-539 CNS, in the test with SW-620 colon, with UACC-62 melanoma, in the test with HCC-2998 colon and in the test with MOLT-4 leukemia was over 100 µM each time. Besides, the TGI with NCI-H460 lung, with NCI-H23 lung, in the test on UO-31 renal, with U251 CNS, in the test on LOX IMVI melanoma and in the test on HT29 colon was over 100 µM throughout. Also, the TGI with CCRF-CEM leukemia, in the test on OVCAR-8 ovarian, in the test with IGROV1 ovarian and with OVCAR-5 ovarian was over 100 µM each time.
As to `O=S(O)CCCCCSSc1ccccc1`, the TGI in the test with HL-60(TB) leukemia was 88.1 µM; with SF-539 CNS it was 62.6 µM; in the test with UACC-62 melanoma, 79.9 µM; in the test on HCC-2998 colon, over 100 µM; in the test on MOLT-4 leukemia it was 34.2 µM; with NCI-H460 lung it was over 100 µM. Also, the TGI in the test on NCI-H23 lung is over 100 µM; in the test on UO-31 renal it was over 100 µM; in the test with U251 CNS, 94.1 µM; in the test with LOX IMVI melanoma, 38.4 µM; in the test on HT29 colon, over 100 µM; in the test on CCRF-CEM leukemia it was 50.3 µM. The same molecule gave a TGI in the test with OVCAR-5 ovarian of over 100 µM.
For the molecule `O=C(NN1C(=O)C(Cl)C1c1ccccc1O)c1ccccc1O` (configuration not stated), the TGI was 43.3 µM in the test with HL-60(TB) leukemia; 48.7 µM with SF-539 CNS; over 100 µM in the test with SW-620 colon; over 100 µM in the test on UACC-62 melanoma; over 100 µM in the test with MOLT-4 leukemia; over 100 µM in the test with NCI-H460 lung. Moreover, the TGI in the test with NCI-H23 lung is over 100 µM; in the test on UO-31 renal, 63.8 µM; with U251 CNS, over 100 µM; with HT29 colon it was over 100 µM; in the test with CCRF-CEM leukemia, 70.6 µM; in the test with OVCAR-8 ovarian, over 100 µM. The same molecule came in with a TGI in the test with IGROV1 ovarian of over 100 µM.
For the molecule `N#C/C(=C\c1ccncc1)c1csc2ccccc12`, the TGI with HL-60(TB) leukemia is 35.5 µM; in the test on SF-539 CNS it was 48.9 µM; in the test with SW-620 colon, 67.7 µM; with UACC-62 melanoma it was over 76.4 µM; in the test on HCC-2998 colon, 35.8 µM; with MOLT-4 leukemia, 43.1 µM. Also, the TGI in the test with NCI-H460 lung was over 69 µM; in the test with NCI-H23 lung, over 79.8 µM; in the test with UO-31 renal it was over 83.2 µM; with U251 CNS, 61.9 µM; in the test with LOX IMVI melanoma it was 47.9 µM; with HT29 colon it was 48.2 µM. The TGI in the test with CCRF-CEM leukemia was 55.8 µM; in the test on OVCAR-8 ovarian, over 85.1 µM; in the test with IGROV1 ovarian it was 97.4 µM; with OVCAR-5 ovarian, over 89.6 µM.
As usually defined, the GI50 is the concentration at which growth is held to half of that of the control. Take `CCCCCC(=O)N[C@@H](c1ccco1)[C@@H](O)C(=O)O[C@H]1C[C@@]2(O)[C@@H](OC(=O)c3ccccc3)[C@@H]3[C@]4(OC(C)=O)CO[C@@H]4C[C@H](O)[C@@]3(C)C(=O)[C@H](OC(C)=O)C(=C1C)C2(C)C`: the GI50 is 0.00401 µM in the test on UACC-62 melanoma, 0.000239 µM with NCI-H23 lung, 0.187 µM in the test with UO-31 renal and 0.00129 µM in the test on IGROV1 ovarian. Also, the TGI in the test with HCC-2998 colon, in the test on NCI-H460 lung, in the test on NCI-H23 lung, in the test with UO-31 renal, in the test with U251 CNS and in the test with HT29 colon was over 25 µM each time. In addition, the TGI in the test on OVCAR-8 ovarian was over 25 µM.

These data come from PubChem BioAssay (NCI).
